# According to PMC11645656, “MRGPRX4 mediates phospho-drug associated pruritus in a humanized mouse model” (Science translational medicine, 2024):
# “And” between values parts separate entries of the source, which are not always exact repeats. Identical values can stand only once.
# Legend:
# MRGPRX4 (S83) = target: T1, MRGPRX4 (S83) (Homo sapiens, UniProt Q96LA9, L83S); assay: EC50 determination, intracellular calcium mobilization in MRGPRX4 stably expressed HEK293 cells (FLIPR Calcium 5, Flexstation-3); type: cell-based; design: Fig. 1D dose-response, calcium mobilization response (individual replicate) / calcium mobilization response (Fig. 1D dose-response raw data): unit not given here; conditions: for calcium mobilization response (Fig. 1D dose-response raw data): individual replicate values
# T1 construct: expressed in transfected cells
# Summary of the method: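 HEK293 cells stably expressing receptor (parental HEK293 alongside) loaded with Calcium 5 dye in HBSS/20 mM HEPES, pH 7.4, 1 h at 37 °C, then compounds added. Response = peak minus pre-drug baseline, triplicates averaged; EC50 from 4PL fit.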
# NP2-WT mice = assay: Itch behavioral study (scratching bouts after subcutaneous nape injection) in littermate control NP2-WT mice; type: in vivo; conditions: 30 min after injection of 50 μl 10 mM into the nape, each cell one mouse
# Description: Fig. 2. Phosphate monoester prodrugs induce itch in NP2-MRGPRX4+ mice through activating NP2 primary sensory neurons. (A) Mating strategy to generate NP2-X4+ mice. (B) In situ hybridization showing MRGPRX4 transcripts (magenta) in NP2-X4+ DRG as indicated by arrowheads (left) but not in littermate control NP2-WT (right). NP2 subpopulation accounts for 5% of total DRG neurons. DAPI, blue. Scale bar, 50 μm. […] . Data are expressed as mean ± SEM. *p< 0.05, **p< 0.01 and ***p< 0.001 by two-tailed unpaired Student’s t-test. ns = no statistical significance observed. (D and E) Traces of average (top, depicted as mean ± 95% confidence interval) and individual (bottom, reflected by the heatmap) calcium activity, measured by fluorescence intensity normalized to the baseline intensity (FT/F0) over time of NP2-X4+ (D) and NP2-WT (E) DRG neurons labelled with GCaMP6s (n = 110–150 neurons pooled from 3–7 independent culture vessels from 2–4 mice in each condition). 10 μM phospho-drugs and 1 mM CQ were added as indicated by the arrowheads. Neurons with FT/F0 > 1.5 after compound application were considered a positive responder. NP2-X4+: NP2-MRGPRX4+; DRG, dorsal root ganglia; CQ: chloroquine.
# . All the animals used were heterozygous unless otherwise specified. NP2-X4+ and NP2-WT littermates were generated by crossing Mrgpra3-Cre to Rosa26-lsl-MRGPRX4 as detailed previously ([15]). NP2-X4+ mice were further crossed to homozygous Rosa26-lsl-GCaMP6s to obtain NP2-WT/GCaMP6s and NP2-X4+/GCaMP6s animals. A detailed mating strategy is illustrated in fig. S5. Pirt-Cre-GCaMP6s animals were acquired by crossing Pirt-Cre to homozygous Rosa26-lsl-GCaMP6s. Pirt-Cre animals were generated through homologous recombination as indicated previously ([37]). Rosa26-lsl-GCaMP6s mouse line was provided by Dr. Dwight Bergles’ lab at the Johns Hopkins School of Medicine.
# [1] = IV, clinical trials; ref New Drug Application: 020450; cited from earlier work
# MRGPRX4 WT (S83) = MRGPRX4 WT (S83) (Homo sapiens, UniProt Q96LA9, L83S); assay: PRESTO-Tango β-arrestin recruitment assay, HTLA cells stably expressing WT (S83) MRGPRX4; type: cell-based; design: expressed in transfected cells; conditions: for PRESTO-Tango response (fig. S1), single replicate: HTLA::MRGPRX4; for fig. S7 response (raw signal), concentration-response: WT, single replicate
# Description: HTLA cells, a cell line derived from HEK293 and engineered to stably express a tTA-dependent luciferase reporter and a β-arrestin2-TEV fusion gene, were generously provided by Richard Axel's laboratory. HTLA cells were cultured in growth medium containing 2 μg/ml puromycin and 100 μg/ml hygromycin B in 5% CO2 at 37 °C. Stably MRGPRX4-expressing HTLA cells were generated by transfecting pcDNA3.1(+)-Zeo containing MRGPRX4-Tango construct (either with WT or S83L mutant sequence) into HTLA cells with Lipofectamine 3000 and selecting the successful transfected clones with Zeocin.
# HTLA cells stably expressing either WT or S83L MRGPRX4 were seeded in PDL-coated 96-well white clear bottom cell culture plates with DMEM containing 10% FBS, at a density of 35,000 cells per well and were allowed to attach to the bottom of the wells overnight. The next day, growth medium was replaced with 100 μl of serum-free medium containing the tested drugs at various concentrations, and the cells were then incubated at 37°C for 24 h. On the following day, media with drug solutions was removed and 50 μl per well of Bright-Glo™ Reagent from Bright-Glo™ Luciferase Assay System (Promega) was loaded. The plate was incubated at room temperature in the dark for 5 min, and the relative luminescence units were measured using the Flexstation-3 instrument with SoftMax®Pro 7.1 software (Molecular Devices). Dose response curves and EC50s were analyzed as described above.
# Data are from at least two independent experiments, each performed in
# triplicate, and are depicted as mean ± SEM.
# arrestin2-TEV fusion gene and a tTA -dependent luciferase reporter.
# Chain of MRGPRX4 WT (S83) (Q96LA9 whole entry L83S, the tested form may be a part): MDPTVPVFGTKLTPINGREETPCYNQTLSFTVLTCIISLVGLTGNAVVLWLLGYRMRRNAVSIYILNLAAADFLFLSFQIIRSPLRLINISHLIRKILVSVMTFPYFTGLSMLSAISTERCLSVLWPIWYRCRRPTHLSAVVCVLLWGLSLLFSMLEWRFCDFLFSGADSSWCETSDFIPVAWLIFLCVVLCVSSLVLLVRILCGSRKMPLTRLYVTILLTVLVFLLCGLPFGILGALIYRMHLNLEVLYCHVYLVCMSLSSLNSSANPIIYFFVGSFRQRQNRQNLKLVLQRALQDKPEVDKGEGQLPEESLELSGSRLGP
# T1 sequence (Q96LA9 whole entry L83S): as the sequence (Q96LA9 whole entry L83S, the tested form may be a part) above
structure (smiles),measurement,setting,value
O=C1NC(c2ccccc2)(c2ccccc2)C(=O)N1COP(=O)(O)O [Fosphenytoin],EC50,"MRGPRX4 (S83); MRGPRX4 stably expressed HEK293 cells, calcium mobilization, read-out: EC50",77 nM
same,calcium mobilization response (Fig. 1D dose-response raw data),MRGPRX4 (S83); concentration 3.90625e-9 M,21.206 and 25.291 and 2.769 and 3.958 and -8.2623 and 8.875 and 8.837 and 9.145 and 8.934
same,calcium mobilization response (Fig. 1D dose-response raw data),MRGPRX4 (S83); concentration 7.8125e-9 M,-14.542 and 13.805 and 7.794 and 12.8387 and 12.8087 and 12.5987 and 3.298 and 9.875 and 9.477
same,calcium mobilization response (Fig. 1D dose-response raw data),MRGPRX4 (S83); concentration 1.5625e-8 M,19.866 and 22.527 and 5.041 and 1.449 and 6.253 and 14.7987 and -3.2365 and 13.5705 and -5.8765
same,calcium mobilization response (Fig. 1D dose-response raw data),MRGPRX4 (S83); concentration 3.125e-8 M,57.235 and 30.337 and 81.497 and 17.5777 and 19.6667 and 31.6637 and -30.287 and 41.9265 and -1.7705
same,calcium mobilization response (Fig. 1D dose-response raw data),MRGPRX4 (S83); concentration 6.25e-8 M,190.544 and 229.236 and 134.524 and 58.9937 and 67.8137 and 76.3827 and 88.4165 and 111.221 and 55.6105
same,calcium mobilization response (Fig. 1D dose-response raw data),MRGPRX4 (S83); concentration 1.25e-7 M,316.003 and 301.004 and 304.213 and 117.536 and 116.768 and 79.1877 and 194.175 and 173.792 and 144.932
same,calcium mobilization response (Fig. 1D dose-response raw data),MRGPRX4 (S83); concentration 2.5e-7 M,345.7 and 324.779 and 337.838 and 121.175 and 136.568 and 118.794 and 200.38 and 226.084 and 171.163
same,calcium mobilization response (Fig. 1D dose-response raw data),MRGPRX4 (S83); concentration 5e-7 M,387.516 and 373.964 and 353.304 and 134.73 and 112.159 and 119.649 and 195.132 and 238.81 and 185.954
same,calcium mobilization response (Fig. 1D dose-response raw data),MRGPRX4 (S83); concentration 1e-6 M,410.183 and 413.027 and 415.898 and 143.736 and 123.579 and 132.916 and 226.932 and 271.213 and 250.762
same,calcium mobilization response (Fig. 1D dose-response raw data),MRGPRX4 (S83); concentration 2e-6 M,394.314 and 370.112 and 382.271 and 127.759 and 125.948 and 138.324 and 218.164 and 295.676 and 255.523
same,Hill coefficient,"MRGPRX4 (S83); dose-response curve fitting, table S1",1.917
same,Scratching bouts of individual animals,NP2-WT mice,33 and 0 and 2 and 9 and 5 and 14 and 6 and 20 and 4
same,Patients who reported itch,[1],48.9%
same,"PRESTO-Tango response (fig. S1), single replicate",MRGPRX4 WT (S83); concentration 1.95e-7 M,0.2272 and 0.1839 and 0.1708 and 0.08379 and 0.0626 and 0.06306
same,"PRESTO-Tango response (fig. S1), single replicate",MRGPRX4 WT (S83); concentration 3.91e-7 M,0.258 and 0.2297 and 0.204 and 0.07839 and 0.196 and 0.08224
same,"PRESTO-Tango response (fig. S1), single replicate",MRGPRX4 WT (S83); concentration 7.81e-7 M,0.5296 and 0.4272 and 0.4321 and 0.1295 and 0.1604 and 0.1155
same,"PRESTO-Tango response (fig. S1), single replicate",MRGPRX4 WT (S83); concentration 1.56e-6 M,1.193 and 1.025 and 0.8155 and 0.2489 and 0.1773 and 0.193
same,"PRESTO-Tango response (fig. S1), single replicate",MRGPRX4 WT (S83); concentration 3.13e-6 M,2.598 and 2.433 and 2.514 and 0.4404 and 0.5024 and 0.4535
same,"PRESTO-Tango response (fig. S1), single replicate",MRGPRX4 WT (S83); concentration 6.25e-6 M,5.285 and 4.4353 and 4.292 and 0.9622 and 0.8766 and 0.6627
same,"PRESTO-Tango response (fig. S1), single replicate",MRGPRX4 WT (S83); concentration 1.25e-5 M,7.96 and 6.958 and 5.919 and 1.839 and 1.437 and 1.511
same,"PRESTO-Tango response (fig. S1), single replicate",MRGPRX4 WT (S83); concentration 2.5e-5 M,10.7681 and 8.616 and 8.444 and 2.5381 and 2.199 and 2
same,"PRESTO-Tango response (fig. S1), single replicate",MRGPRX4 WT (S83); concentration 5e-5 M,10.7109 and 8.966 and 9.235 and 2.8872 and 2.833 and 2.449
same,"PRESTO-Tango response (fig. S1), single replicate",MRGPRX4 WT (S83); concentration 0.0001 M,9.427 and 8.942 and 7.727 and 3.267 and 2.882 and 2.338
same,"PRESTO-Tango response (fig. S1), single replicate",MRGPRX4 WT (S83); concentration 0.0002 M,8.979 and 8.052 and 6.854 and 2.562 and 2.3992 and 2.255
same,"fig. S7 response (raw signal), concentration-response",MRGPRX4 WT (S83); 1.95e-7 M,22724.6 and 18390.5 and 17083.6 and 8378.77 and 6259.78 and 6305.82 and 12291.8 and 11793.8 and 15486
same,"fig. S7 response (raw signal), concentration-response",MRGPRX4 WT (S83); 3.91e-7 M,25803.9 and 22965.5 and 20401.3 and 7839.11 and 19602.9 and 8224.03 and 24524.9 and 14963.1 and 12930.4
same,"fig. S7 response (raw signal), concentration-response",MRGPRX4 WT (S83); 7.81e-7 M,52955.5 and 42723 and 43213.9 and 12950.5 and 16037.6 and 11551.5 and 30971.1 and 30307.2 and 28437.7
same,"fig. S7 response (raw signal), concentration-response",MRGPRX4 WT (S83); 1.56e-6 M,119282 and 102488 and 81549.3 and 24892.1 and 17734.6 and 19298.5 and 55751 and 73836.3 and 53034.5
same,"fig. S7 response (raw signal), concentration-response",MRGPRX4 WT (S83); 3.13e-6 M,259763 and 243320 and 251368 and 44035.9 and 50243.2 and 45345.4 and 138332 and 159511 and 149195
same,"fig. S7 response (raw signal), concentration-response",MRGPRX4 WT (S83); 6.25e-6 M,528451 and 443530 and 429228 and 96221.6 and 87656.1 and 66266.7 and 291383 and 234158 and 300136
same,"fig. S7 response (raw signal), concentration-response",MRGPRX4 WT (S83); 1.25e-5 M,795954 and 695772 and 591944 and 183925 and 143683 and 151143 and 437126 and 336645 and 507439
same,"fig. S7 response (raw signal), concentration-response",MRGPRX4 WT (S83); 2.5e-5 M,1076811 and 861577 and 844388 and 253810 and 219862 and 200044 and 648692 and 547623 and 531932
same,"fig. S7 response (raw signal), concentration-response",MRGPRX4 WT (S83); 5e-5 M,1071085 and 896572 and 923510 and 288720 and 283304 and 244853 and 667677 and 558954 and 627391
same,"fig. S7 response (raw signal), concentration-response",MRGPRX4 WT (S83); 0.0001 M,942731 and 894246 and 772701 and 326668 and 288202 and 233769 and 534832 and 581310 and 583017
same,"fig. S7 response (raw signal), concentration-response",MRGPRX4 WT (S83); 0.0002 M,897926 and 805208 and 685441 and 256156 and 239920 and 225546 and 318639 and 44935
